The values that follow come from US20090297656A1, “Liquid Formulation Based On a Guanidinoacetic Acid Component” (priority 2005, published 2009).

Where two headings read alike, the source gives them in different places.

Data set [1] in a line: Storage stability in aqueous solution at pH 3.5 and room temperature. Type of data set: physicochemical. As to conditions: pH 3.5, room temperature. The text has this: The rate of breakdown is dependent on the pH of the solution and temperature, with the concentration not playing a role. Particularly in the acid pH region, this breakdown to creatinine proceeds very rapidly. At room temperature and pH 3.5, creatine is already more than 20% converted to creatinine after 3 days and the physiological effect is lost. A pH of 3.5 is a typical pH for, for example, a soft drink. Owing to the rapid breakdown of creatine in this environment, the use of creatine, in particular creatine monohydrate, in aqueous or moist formulations for human and animal nutrition is virtually excluded. Even the pH in the stomach of 1 to 2 can, depending on the residence time, lead to significant breakdown of creatine to form creatinine.
According to FIG. 1, the storage stability of creatine was determined in comparison with a mixture of 4 parts by weight of guanidinoacetic acid and 6 parts by weight of betaine in aqueous solution at pH 3.5 and room temperature: whereas creatine, after 3 days, is already more than 20% converted to creatinine, in the mixture of guanidinoacetic acid and betaine under identical conditions, after 90 days, 95% of the initial amount was still detectable as guanidinoacetic acid.

For data set [2] the following is noted: cited from earlier work.
A short description of data set [3]: Stability under pasteurization or sterilization of aqueous preparations. Type of data set: physicochemical. As to conditions: in contrast to creatine. An excerpt:
In the production process, aqueous preparations, such as those according to the invention, also, are generally pasteurized or sterilized. […] These advantages were unexpected in this manner in their totality.

A short description of data set [4]: Solubility in water. Type of data set: physicochemical. The following applies: room temperature. The text has this:
In comparison with creatine, guanidinoacetic acid has a lower solubility in water (3.8 g per liter at room temperature). […] Therefore, for example, even in half a liter of an aqueous drink, a physiologically meaningful daily dose of the guanidinoacetic acid component can be incorporated without problem.

The test system of data set [5] is Staphyllococcus aureus. The following applies: animal experiments; cited from earlier work.
[6] abbreviates: 0.032% guanidinoacetic acid in hens' feed.
Where [7] appears, read: chickens, less than 0.1% guanidinoacetic acid in the feed.

On to `C[N+](C)(C)CC(=O)O` [Betaine, betaine], for which, in data set [1], the “stability under the stated conditions” value was “completely stable”.

Turning to `CN(CC(=O)O)C(=N)N` [creatine, reference compound], the weight gain in data set [2] (chickens, 0.2% creatine in the feed) was 4%. The converted to creatinine result in data set [1] (after 3 days) is “more than 20%”.

With `N=C(N)NCC(=O)O` [guanidinoacetic acid], in data set [2] (setting [6]), the improved feed utilization was 3% and the weight gain was 3%. Also, in data set [2] (setting [7]), the “lower feed consumption compared with the control group” value was 6% and the “weight gain compared with the control group” value was 7%. The “stability under pasteurization/sterilization conditions” value in data set [3] was “outstanding stability”. This compound returned a solubility in water in data set [4] of 3.8 g per liter. Besides, in data set [5], the “use against bacterial infections” value is given as “successfully used”.
